# Data published in patent US6737397B1, “Control of cancer growth through the interaction of [MET5]-enkephalin and the zeta receptor” (The Penn State Research Foundation, priority 1996, dated 2004).
# Marks after values point to notes of the source that are not given here.
# Legend:
# ζ-opioid receptor [1] = biological target: T1, ζ-opioid receptor (Homo sapiens, UniProt Q9NZT2); assay: [3H]-[Met5]-enkephalin binding of HT-29 tumor homogenates from nude mice treated with 0.1 mg/kg NTX; set-up: from tissue; host or cells: HT-29 human colon tumor xenografts grown in athymic nude mice; nuclear (P1) and other subcellular fractions
# T1 sequence (Q9NZT2 1-677): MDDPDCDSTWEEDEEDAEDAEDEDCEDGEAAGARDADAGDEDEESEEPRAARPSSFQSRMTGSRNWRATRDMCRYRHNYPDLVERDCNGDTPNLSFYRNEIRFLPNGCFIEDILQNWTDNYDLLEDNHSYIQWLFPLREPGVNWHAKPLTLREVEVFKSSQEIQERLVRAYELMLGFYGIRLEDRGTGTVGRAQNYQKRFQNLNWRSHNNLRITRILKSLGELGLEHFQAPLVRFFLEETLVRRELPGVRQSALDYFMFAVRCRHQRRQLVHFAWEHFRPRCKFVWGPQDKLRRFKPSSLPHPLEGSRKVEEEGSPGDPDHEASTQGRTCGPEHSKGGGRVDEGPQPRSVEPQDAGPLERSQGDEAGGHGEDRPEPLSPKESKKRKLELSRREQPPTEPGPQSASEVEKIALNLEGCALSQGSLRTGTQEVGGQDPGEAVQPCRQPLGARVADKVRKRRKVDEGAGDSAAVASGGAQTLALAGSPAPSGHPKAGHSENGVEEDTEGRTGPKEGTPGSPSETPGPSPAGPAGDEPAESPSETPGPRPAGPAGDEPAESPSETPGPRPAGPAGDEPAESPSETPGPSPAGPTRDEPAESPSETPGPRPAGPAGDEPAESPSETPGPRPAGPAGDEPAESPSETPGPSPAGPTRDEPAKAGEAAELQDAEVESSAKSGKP
# Method: Endogenous opioid systems regulate growth of neural tumor cells in culture. Brain Res. 490:1313-1318 (1988)].
# Receptor binding data were analyzed with a Lundon (Saturation Isotherm Binding Analysis) computer program (Lundon Software, Cleveland, Ohio). This analysis utilizes non-linear least squares regression. Saturation curves and Scatchard plots were computed and plotted directly by this program.
# COLO 205 cells = assay: Growth assay (cell counts) of COLO 205 human colon cancer cells; format: cell-based; conditions: 10^−6 M NTX, 48 hr
# Method: (§1) HT-29, WiDr, and COLO 205 cell lines were obtained from the American Type Culture Collection (Rockville, Md.). HT-29 cells were grown in McCoy's 5A media (modified), WiDr cells in Minimum Essential Media, and COLO 205 cells in RPMI 1640 media; all media contained 10% fetal calf serum, 2 mM […], 1.2% sodium bicarbonate and antibiotics (11 Units/ml penicillin, 10 μg/ml streptomycin, 10 μg/ml neomycin) in a humidified atmosphere of 7% CO2/93% air at 37° C. In some examples, cultures of HT-29 cells were maintained in McCoy's 5A media without fetal calf serum.
# (§2) Cells were seeded at equivalent amounts into 75 cm^2 flasks or into 9.6 cm^2 wells (6-well plates, Falcon) and were counted 24 hr later to determine plating efficiency. Drugs or sterile water were added beginning 24 hr after seeding (=0 hours) and both media and drugs were changed daily. All drugs were prepared in sterile water and dilutions represent final concentrations of the compounds. At appropriate times, cells were harvested with 0.05% trypsin/0.53 mM EDTA, centrifuged, and counted with a hemacytometer at 200×. Cell viability was determined by trypan blue staining. At least 2 aliquots/flask or well were counted and 2 flasks or wells/time point/treatment group were sampled.
# (§3) To examine the ubiquity of opioid activity with respect to colon cancer, two other colon cancer cell lines were investigated: COLO 205 and WiDr.
# neuroblastoma = conditions: cited from earlier work
# HT-29 cells = assay: Growth assay (cell counts) of HT-29 human colon cancer cells in culture; format: cell-based
# Method: In some examples, cultures of HT-29 cells were maintained in McCoy's 5A media without fetal calf serum.
# as §2
# WiDr cells = assay: Growth assay (cell counts) of WiDr human colon cancer cells; format: cell-based; conditions: 10^−6 M NTX, 48 hr
# Method: as §1, §2, §3
# ζ-opioid receptor [2] = biological target: T1, ζ-opioid receptor; assay: Competition for binding of [3H][Met5]enkephalin (4.0 nM) in nuclear homogenates of HT-29 human colon tumors; set-up: from tissue; host or cells: HT-29 human colon tumor xenografts grown in athymic nude mice; nuclear (P1) and other subcellular fractions
# [3] = tested on: HT-29 human colon cancer cells; assay: HT-29 human colon tumor xenografts in nude mice treated with 0.1 mg/kg naltrexone; format: in vivo
# Method: HT-29 human colon cancer cells, purchased from the American Type Culture Collection (Rockville, Md.), were grown in McCoy's 5A Modified Medium containing 10% fetal calf serum, L-glutamine (2 mM), penicillin (10 units/ml), and streptomycin ([…]) in an atmosphere of 7% CO2 at 37° C. Cell viability was determined by the trypan blue exclusion test. Five- to six-week-old male athymic nude mice, obtained from the National Cancer Institute (Frederick, Md.), were injected subcutaneously over the right shoulder with 1×10^6 log phase HT-29 cells in a 0.5 ml suspension of McCoy's media. The day of tumor cell inoculation was considered day 0. The mice were evaluated daily and the date that the tumor became palpable was recorded. The time of “initial” appearance of a tumor was considered to be the day when tumor volume was 5 mm^3 or larger. Individual tumors were measured with vernier calipers every 2 days. Measurements of the two largest perpendicular dimensions were recorded and tumors volume was calculated using the formula: length×(width)^2×0.5 [Osieka, R., D. P. Houchens, and A. Goldin. Chemotherapy of human colon cancer xenografts in athymic nude mice. Cancer 40:2640-2650, (1977)]. All mice were euthanized and necropsied 50 days after tumor cell inoculation. Tumor tissue for receptor binding assays and radioimmunoassays was rapidly frozen in liquid nitrogen and stored at −70° C. until assayed.
# Treatment was initiated on the day of tumor cell inoculation. […] Animals were weighed-weekly and appropriate dosage adjustments made.
# Latencies until tumor appearance were analyzed using one-way analysis of variance; subsequent comparisons were made with the Newman-Keuls test. The number of mice developing tumors was expressed as a ratio of the total number of mice in the group. Comparisons between groups were made with chi-square tests.
# The growth of tumors was compared for each mouse beginning on the day of initial tumor appearance and every 3 days thereafter until the termination of the experiment. Tumor measurements on these days were analyzed using one-way analysis of variance and Newman-Keuls test. Body weights were compared with a two-factor analysis of variance.
smiles,measurement,setting,value
O=C1CC[C@@]2(O)[C@H]3Cc4ccc(O)c5c4[C@@]2(CCN3CC2CC2)[C@H]1O5 [naltrexone],binding affinity (Kd) versus control levels,ζ-opioid receptor [1]; 0.1 mg/kg naltrexone,did not differ
same,binding capacity (Bmax) decreased from control values,ζ-opioid receptor [1]; 0.1 mg/kg naltrexone,6.6 fold
same,"Bmax, fmol/mg protein",ζ-opioid receptor [1]; tumors from mice treated with 0.1 mg/kg NTX,52.9 ± 12.1 fmol/mg protein
same,more cells than control cultures,COLO 205 cells,76%
same,duration of opioid receptor blockade,neuroblastoma; 0.1 mg/kg single daily injection,4-6 h/day
same,course of tumorigenesis and survival,neuroblastoma; chronic receptor blockade: 10 mg/kg per day or 0.1 mg/kg 4 times daily,accelerated the course of tumorigenesis and shortened survival
same,tumor effect (e.g. tumor incidence),neuroblastoma; single daily injection of 0.1 mg/kg,antitumor effect
same,effect on cell growth in serum-free media,HT-29 cells,significant increase in cell number
same,increase in cell number compared to control cultures,"HT-29 cells; 10^−6 M NTX, 12 hr",38%
same,more cells than control cultures,WiDr cells,68%
same,IC50,"ζ-opioid receptor [2]; 4.0 nM [3H][Met5]enkephalin, read-out: IC50",90.5 ± 3.5 nM
same,Ki,"ζ-opioid receptor [2]; calculated from IC50 by Cheng and Prusoff, read-out: KI",69.6 ± 2.7 nM
same,Number of mice with tumors 19 days after inoculation,[3]; 0.1 mg/kg NTX daily,3/10**
same,Number of mice with tumors 36 days after inoculation,[3]; 0.1 mg/kg NTX daily,6/10*
same,Number of mice with tumors 50 days after inoculation,[3]; 0.1 mg/kg NTX daily,8/10
same,Latency (days) for initial tumor appearance,[3]; 0.1 mg/kg NTX daily s.c.,23.1 ± 2.9 days
same,Latency (days) for initial tumor appearance (Range),[3]; 0.1 mg/kg NTX daily s.c.,(14-37) days
same,Latency (days) for palpable tumor,[3]; 0.1 mg/kg NTX daily s.c. from inoculation,17.0 ± 2.8 days
same,behavioral differences (e.g. hyperactivity) versus control,[3]; 0.1 mg/kg naltrexone,no behavioral differences
same,interval between palpable tumors and initial tumor appearance versus control,[3]; 0.1 mg/kg naltrexone,similar
same,mean latency prior to palpable tumor appearance increased compared to control,[3]; 0.1 mg/kg naltrexone,2.4 fold
same,range in latency until initial tumor appearance greater than control,[3]; 0.1 mg/kg naltrexone,up to 2 fold
same,size of tumors after initial tumor appearance versus control,[3]; 0.1 mg/kg naltrexone,did not differ
same,body weights versus control animals,"[3]; 0.1 mg/kg naltrexone, throughout the experiment",comparable
same,mice with tumors,"[3]; day 36, 0.1 mg/kg",60%
same,mice that still did not have tumors,"[3]; day 50, 0.1 mg/kg",20%
same,mice with tumors of 5 mm^3 or larger,"[3]; nineteen days after inoculation, 0.1 mg/kg",30%
same,number of mice with palpable tumors,"[3]; ten days after tumor cell inoculation, 0.1 mg/kg",2
